Measured values from patent US20250290117A1, “MOLECULAR PHENOTYPIC ANTIMICROBIAL SUSCEPTIBILITY TESTING” (priority 2024, published 2025).

Experiments:
Assay type in all cases: cell-based
Acinetobacter baumannii [1] = assay: Molecular phenotypic antimicrobial susceptibility test (extraction/DNA purification prior to PCR)
Experimental: Detection of Molecular Phenotypic Antimicrobial Susceptibility. Disclosed herein are the methods for the detection of phenotypic antimicrobial susceptibility via molecular methods. The present invention describes how a specimen 100 with a known microbial load is incubated and then exposed to a panel of antimicrobial agents to determine sensitivity (prevention of growth) or resistance (allowance of growth) to the specific antimicrobial agents tested utilizing molecular methods. Sample Collection. Specimens 100 are collected from patients using sterile collection processes that are employed in routine clinical care. Specimens are transported to the testing facility in boric acid preservative. […] The specimens 100 are put through a pathogen identification process using PCR technology (e.g., using the first sample 104). The process for pathogen isolation includes steps of harvesting the pathogen (e.g., via centrifugation), isolating pathogen DNA via a DNA isolation and/or purification kit, and performing PCR on the pathogen DNA via PCR components (e.g., primers, enzymes, buffers) as would be known to the skilled artisan. Simultaneously, an additional aliquot of the same specimen (e.g., the second sample 108) is placed with liquid culture media and incubated for 4-6 hours. This aliquot is used for antimicrobial susceptibility testing if indicated based on the pathogen detection results. […] Specimens 100 with lower pathogen loads could also be utilized in the antibiotic susceptibility phase of testing with or without a longer incubation period. […] Antimicrobial solutions are prepared at known concentrations. The specific antimicrobials and their concentrations are selected based on the pathogen of interest and the described antimicrobial resistance breakpoints for that specimen pathogen and antimicrobial combination. These antimicrobials have been selected based on those commonly utilized by healthcare providers in routine clinical care for the specific type of suspected infection. The number and types of antimicrobials utilized can be customized based on the infection source, pathogen detected, patient-specific factors such as allergies or other health conditions (e.g., chronic kidney disease or concurrent medication use), or healthcare provider preferences such as antimicrobial availability or cost. The antimicrobial solutions are prepared in liquid culture media (such as Muller Hinton Broth) to achieve the desired antimicrobial concentration and are then stored at −80° C. until use. For a given specimen, each antimicrobial is tested at a single or multiple antimicrobial concentration(s) which is its established breakpoints for sensitivity. The antimicrobial solutions are prepared and plated out for each specific pathogen. This allows ease of use on the day of testing after defrosting the plate 112. Table 1, which illustrates the results of molecular phenotypic antimicrobial susceptibility testing when more than one organism is present in the source specimen, provides an example of an antimicrobial plate 112 prepared for this purpose. Of note, control wells containing only culture media are present on all plates 112. This allows for evaluation of pathogen load when no antimicrobial is present. Specimen Exposure to Antimicrobial Agents. The 1 mL aliquot of the specimen 100 previously mixed with culture media and incubated is obtained. Using optical density measurements as a guide, the specimen 100 is diluted to 0.5 McFarland. The specimen 100 is then placed into the previously prepared antimicrobial susceptibility testing plate 112. Each plate 112 is prepared for a single specimen 100 for a specified pathogen based on its detection. For example, if the specimen 100 has more than one pathogen detected that needs different antimicrobial concentrations for exposure due to different minimum inhibitory concentration breakpoints for one or more organisms, then more than one antimicrobial exposure plate 112 may be needed. […]

Acinetobacter baumannii [2] = assay: Traditional culture-based antimicrobial susceptibility test
Description: Table 2 illustrates the results of an example antimicrobial agent susceptibility test of the current application versus a traditional culture-based antimicrobial agent susceptibility test for […], in accordance with one or more embodiments of the disclosure. This specimen underwent extraction and/or DNA purification prior to PCR. As in Table 1, the results of the test of the current application are similar to the results from the traditional test.
(§1) Result Reporting to Healthcare Providers. The results from the antimicrobial exposure are reported to the ordering healthcare provider. This information can be utilized by the healthcare provider when selecting an antimicrobial regimen for their individual patient based on these individual specimen results and patient specific factors. […] The current standard of care for antimicrobial susceptibility testing involves the growth, isolation, and exposure of pathogens to antimicrobials. This traditional culture and sensitivity process can take multiple days to obtain results, limiting the ability of healthcare providers to receive timely results to make actionable changes in patient care or management. Healthcare providers desire a method to obtain antimicrobial susceptibility results with quicker turn-around-time. This application discloses a molecular-based phenotypic antimicrobial susceptibility method which involves pathogen exposure to a panel of antimicrobial agents at their specified minimum inhibitory concentration breakpoints for sensitivity. This method allows for more timely antimicrobial susceptibility results.

pathogen of the specimen = assay: Traditional culture-based antimicrobial susceptibility test (comparison of Table 7); details: E. coli isolate 1189
Experimental: as §1, with “Table 7 illustrates the results of an example antimicrobial agent susceptibility test of the current application versus a traditional culture-based antimicrobial agent susceptibility test at multiple incubation timepoints, in accordance with one or more embodiments of the disclosure. These specimens were tested with direct PCR (e.g., no extraction DNA purification step prior to PCR). […] Result” for “Result”

[3] = A. baumannii isolate 1, Ct at control (average) 18.811
[4] = A. baumannii isolate 1, at sensitive breakpoint
[5] = A. baumannii isolate 2, Ct at control (average) 18.763
[6] = A. baumannii isolate 2, at sensitive breakpoint
[7] = A. baumannii isolate 3, Ct at control (average) 18.799
[8] = A. baumannii isolate 3, at sensitive breakpoint
[9] = A. baumannii isolate 4, Ct at control (average) 18.061
[10] = A. baumannii isolate 4, at sensitive breakpoint
[11] = A. baumannii isolate 5, Ct at control (average) 18.191
[12] = A. baumannii isolate 5, at sensitive breakpoint

Molecule	Ct at Sensitive Breakpoint (Acinetobacter baumannii [1]; [3])	Molecular Antimicrobial Susceptibility Result (Acinetobacter baumannii [1]; [4])	Ct at Sensitive Breakpoint (Acinetobacter baumannii [1]; [5])	Molecular Antimicrobial Susceptibility Result (Acinetobacter baumannii [1]; [6])	Ct at Sensitive Breakpoint (Acinetobacter baumannii [1]; [7])	Molecular Antimicrobial Susceptibility Result (Acinetobacter baumannii [1]; [8])	Ct at Sensitive Breakpoint (Acinetobacter baumannii [1]; [9])	Molecular Antimicrobial Susceptibility Result (Acinetobacter baumannii [1]; [10])	Ct at Sensitive Breakpoint (Acinetobacter baumannii [1]; [11])	Molecular Antimicrobial Susceptibility Result (Acinetobacter baumannii [1]; [12])	Traditional Culture Result (Acinetobacter baumannii [2]; A. baumannii isolate 1)	Traditional Culture Result (Acinetobacter baumannii [2]; A. baumannii isolate 2)	Traditional Culture Result (Acinetobacter baumannii [2]; A. baumannii isolate 3)	Traditional Culture Result (Acinetobacter baumannii [2]; A. baumannii isolate 4)	Traditional Culture Result (Acinetobacter baumannii [2]; A. baumannii isolate 5)	Traditional Culture Result (pathogen of the specimen)
O=C(O)c1cn(C2CC2)c2cc(N3CCNCC3)c(F)cc2c1=O [Ciprofloxacin]	16.306	Resistant	19.471	Resistant	17.802	Resistant	18.101	Resistant	18.773	Resistant	Resistant	Resistant	Resistant	Resistant	Resistant	Sensitive
Trimethoprim/Sulfamethoxazole [TMP/SMX]	22.888	Sensitive (Antimicrobial wells with pathogen load detected below the control wells (typically >2 cycle thresholds later) may be reported as Sensitive)	22.916	Sensitive (Antimicrobial wells with pathogen load detected below the control wells (typically >2 cycle thresholds later) may be reported as Sensitive)	22.407	Sensitive (Antimicrobial wells with pathogen load detected below the control wells (typically >2 cycle thresholds later) may be reported as Sensitive)	23.297	Sensitive (Antimicrobial wells with pathogen load detected below the control wells (typically >2 cycle thresholds later) may be reported as Sensitive)	22.742	Sensitive (Antimicrobial wells with pathogen load detected below the control wells (typically >2 cycle thresholds later) may be reported as Sensitive)	Sensitive	Sensitive	Sensitive	Sensitive	Sensitive	Sensitive
